Data reported in patent publication US10550127B1, “Indanylaminoazadihydrobenzofuranylacetic acids, pharmaceutical compositions for the treatment of diabetes” (Boehringer Ingelheim International GmbH, priority 2017, dated 2020).

Target: human GPR40 receptor (Homo sapiens (Human), UniProt O14842)
Test: IP1 accumulation measurements using the IPOne assay system
Assay type: cell-based
Conditions: 1321N1 cells stably expressing human GPR40, 1 h stimulation
Protocol: IP1 accumulation measurements using the IPOne assay system—1321N1 cells stably expressing human GPR40 receptor (Euroscreen, Belgium) are seeded 24 h before the assay in white 384-well plates in culture medium containing 10% FCS, 1% Na-Pyruvate and 400 μg/mL G418. IP1 is assayed according to the manufacturer's description (Cisbio Bioassays, France). In brief, the assay is started by substitution of the culture medium by stimulation buffer (Hepes 10 mM, CaCl2) 1 mM, MgCl2 0.5 mM, KCl 4.2 mM, NaCl 146 mM, glucose 5.5 mM and LiCl 50 mM, pH 7.4). Cells are stimulated for 1 h at 37° C., 5% CO2 by addition of the compounds that are diluted in stimulation buffer containing LiCl. Assays are stopped by adding HTRF-conjugates (IP1-d2 and Anti-IP1 cryptate Tb) and lysis buffer, provided by the manufacturer. After an incubation time of 1 h at room temperature plates are measured using an EnVision™, Perkin Elmer. The obtained fluorescence ratios at 665/615 […] are then used to calculate the pEC50 values using Assay Explorer 3.3 Software (Accelrys, Inc.) by interpolation using an IP1 reference curve and subsequent sigmoidal curve fitting allowing for a variable hill slope.

Sequence of human GPR40 receptor (O14842 whole entry): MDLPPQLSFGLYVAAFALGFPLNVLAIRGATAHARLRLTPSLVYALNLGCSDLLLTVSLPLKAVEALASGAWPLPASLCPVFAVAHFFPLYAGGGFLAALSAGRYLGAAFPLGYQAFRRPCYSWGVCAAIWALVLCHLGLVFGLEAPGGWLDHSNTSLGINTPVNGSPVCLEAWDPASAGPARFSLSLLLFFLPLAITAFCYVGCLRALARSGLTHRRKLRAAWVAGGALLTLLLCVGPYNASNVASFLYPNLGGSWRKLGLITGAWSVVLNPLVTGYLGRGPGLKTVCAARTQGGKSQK

Point of comparison: Cc1cc(O[C@@H]2CCOC2)cc(C)c1-c1ccc(F)c2c1CC[C@H]2Nc1cc2c(cn1)[C@H](CC(=O)O)CO2 [Example 9, [(S)-6-((R)-4-{2,6-Dimethyl-4-[(R)-(tetrahydro-furan-3-yl)oxy]-phenyl}-7-fluoro-indan-1-ylamino)-2,3-dihydro-furo[3,2-c]pyridin-3-yl]-acetic Acid], EC50 0.057 µM. Against it:
- Cc1cc(OCCC(C)(C)O)cc(C)c1-c1ccc(F)c2c1CC[C@H]2Nc1cc2c(cn1)[C@@H](CC(=O)O)CO2 [Example 2, ((R)-6-{(R)-7-Fluoro-4-[4-(3-hydroxy-3-methyl-butoxy)-2,6-dimethyl-phenyl]-indan-1-ylamino}-2,3-dihydro-furo[3,2-c]pyridin-3-yl)-acetic Acid] — 13-fold higher, 0.764 µM
- Cc1cc(OCCC(C)(C)O)cc(C)c1-c1cccc2c1CC[C@H]2Nc1cc2c(cn1)[C@H](CC(=O)O)CO2 [Example 3, ((S)-6-{(R)-4-[4-(3-Hydroxy-3-methyl-butoxy)-2,6-dimethyl-phenyl]-indan-1-ylamino}-2,3-dihydro-furo[3,2-c]pyridin-3-yl)-acetic Acid] — 2.7-fold lower, 0.021 µM
- Cc1cc(OCCC(C)(C)O)cc(C)c1-c1cccc2c1CC[C@H]2Nc1cc2c(cn1)[C@@H](CC(=O)O)CO2 [Example 4, ((R)-6-{(R)-4-[4-(3-Hydroxy-3-methyl-butoxy)-2,6-dimethyl-phenyl]-indan-1-ylamino}-2,3-dihydro-furo[3,2-c]pyridin-3-yl)-acetic acid] — 13-fold higher, 0.751 µM
- Cc1cc(-c2nnn(C)n2)cc(C)c1-c1ccc(F)c2c1CC[C@H]2Nc1cc2c(cn1)[C@@H](CC(=O)O)CO2 [Example 6, ((R)-6-{(R)-4-[2,6-Dimethyl-4-(2-methyl-2H-tetrazol-5-yl)-phenyl]-7-fluoro-indan-1-ylamino}-2,3-dihydro-furo[3,2-c]pyridin-3-yl)-acetic Acid] — 6.7-fold higher, 0.382 µM
- Cc1cc(-c2nnn(C)n2)cc(C)c1-c1cccc2c1CC[C@H]2Nc1cc2c(cn1)[C@H](CC(=O)O)CO2 [Example 7, ((S)-6-{(R)-4-[2,6-Dimethyl-4-(2-methyl-2H-tetrazol-5-yl)-phenyl]-indan-1-ylamino}-2,3-dihydro-furo[3,2-c]pyridin-3-yl)-acetic Acid] — 8.1-fold lower, 0.007 µM
- Cc1cc(-c2nnn(C)n2)cc(C)c1-c1cccc2c1CC[C@H]2Nc1cc2c(cn1)[C@@H](CC(=O)O)CO2 [Example 8, ((R)-6-{(R)-4-[2,6-Dimethyl-4-(2-methyl-2H-tetrazol-5-yl)-phenyl]-indan-1-ylamino}-2,3-dihydro-furo[3,2-c]pyridin-3-yl)-acetic acid] — 6.6-fold higher, 0.378 µM
- Cc1cc(OC2CCOCC2)cc(C)c1-c1ccc(F)c2c1CC[C@H]2Nc1cc2c(cn1)[C@H](CC(=O)O)CO2 [Example 10, ((S)-6-{(R)-4-[2,6-Dimethyl-4-(tetrahydro-pyran-4-yloxy)-phenyl]-7-fluoro-indan-1-ylamino}-2,3-dihydro-furo[3,2-c]pyridin-3-yl)-acetic Acid] — within 1.5-fold, 0.056 µM
- Cc1cc(OCC2(C)COC2)cc(C)c1-c1ccc(F)c2c1CC[C@H]2Nc1cc2c(cn1)[C@H](CC(=O)O)CO2 [Example 11, ((S)-6-{(R)-4-[2,6-Dimethyl-4-(3-methyl-oxetan-3-ylmethoxy)-phenyl]-7-fluoro-indan-1-ylamino}-2,3-dihydro-furo[3,2-c]pyridin-3-yl)-acetic Acid] — 1.5-fold lower, 0.037 µM
- Cc1cc(O[C@H]2CCOC2)cc(C)c1-c1ccc(F)c2c1CC[C@H]2Nc1cc2c(cn1)[C@H](CC(=O)O)CO2 [Example 12, [(S)-6-((R)-4-{2,6-Dimethyl-4-[(S)-(tetrahydro-furan-3-yl)oxy]-phenyl}-7-fluoro-indan-1-ylamino)-2,3-dihydro-furo[3,2-c]pyridin-3-yl]-acetic Acid] — within 1.5-fold, 0.073 µM
- Cc1cc(OCC(C)(C)O)cc(C)c1-c1ccc(F)c2c1CC[C@H]2Nc1cc2c(cn1)[C@H](CC(=O)O)CO2 [Example 13, ((S)-6-{(R)-7-Fluoro-4-[4-(2-hydroxo-2-methyl-propoxy)-2,6-dimethyl-phenyl]-indan-1-ylamino}-2,3-dihydro-furo[3,2-c]pyridin-3-yl)-acetic Acid] — 1.6-fold lower, 0.035 µM
- Cc1cc(OCC2CCOC2)cc(C)c1-c1ccc(F)c2c1CC[C@H]2Nc1cc2c(cn1)[C@H](CC(=O)O)CO2 (stereo partly drawn) [Example 14, ((S)-6-{(R)-4-[2,6-Dimethyl-4-(tetrahydro-furan-3-ylmethoxy)-phenyl]-7-fluoro-indan-1-ylamino}-2,3-dihydro-furo[3,2-c]pyridin-3-yl)-acetic Acid] — 2.1-fold lower, 0.027 µM
- Cc1cc(-c2nnn(CC(C)(C)O)n2)cc(C)c1-c1ccc(F)c2c1CC[C@H]2Nc1cc2c(cn1)[C@H](CC(=O)O)CO2 [Example 15, [(S)-6-((R)-7-Fluoro-4-{4-[2-(2-hydroxo-2-methyl-propyl)-2H-tetrazol-5-yl]-2,6-dimethyl-phenyl}-indan-1-ylamino)-2,3-dihydro-furo[3,2-c]pyridin-3-yl]-acetic acid] — 6.3-fold lower, 0.009 µM
- Cc1cc(-c2ccn(C)c(=O)n2)cc(C)c1-c1ccc(F)c2c1CC[C@H]2Nc1cc2c(cn1)[C@H](CC(=O)O)CO2 [Example 16, ((S)-6-{(R)-4-[2,6-Dimethyl-4-(1-methyl-2-oxo-1,2-dihydro-pyrimidin-4-yl)-phenyl]-7-fluoro-indan-1-ylamino}-2,3-dihydro-furo[3,2-c]pyridin-3-yl)-acetic acid] — 2.1-fold lower, 0.027 µM
- Cc1cc(-c2ccn(C)c(=O)c2)cc(C)c1-c1ccc(F)c2c1CC[C@H]2Nc1cc2c(cn1)[C@H](CC(=O)O)CO2 [Example 17, ((S)-6-{(R)-4-[2,6-Dimethyl-4-(1-methyl-2-oxo-1,2-dihydro-pyridin-4-yl)-phenyl]-7-fluoro-indan-1-ylamino}-2,3-dihydro-furo[3,2-c]pyridin-3-yl)-acetic Acid] — 4.8-fold lower, 0.012 µM
- Cc1cc(-c2cc(=O)n(C)cn2)cc(C)c1-c1ccc(F)c2c1CC[C@H]2Nc1cc2c(cn1)[C@H](CC(=O)O)CO2 [Example 18, ((S)-6-{(R)-4-[2,6-Dimethyl-4-(1-methyl-6-oxo-1,6-dihydro-pyrimidin-4-yl)-phenyl]-7-fluoro-indan-1-ylamino}-2,3-dihydro-furo[3,2-c]pyridin-3-yl)-acetic Acid] — 4.1-fold lower, 0.014 µM
- Cc1cc(-c2ccc(=O)n(C)c2)cc(C)c1-c1ccc(F)c2c1CC[C@H]2Nc1cc2c(cn1)[C@H](CC(=O)O)CO2 [Example 19, ((S)-6-{(R)-4-[2,6-Dimethyl-4-(1-methyl-6-oxo-1,6-dihydro-pyridin-3-yl)-phenyl]-7-fluoro-indan-1-ylamino}-2,3-dihydro-furo[3,2-c]pyridin-3-yl)-acetic Acid] — 2.1-fold lower, 0.027 µM
- Cc1cc(-c2cnccn2)cc(C)c1-c1ccc(F)c2c1CC[C@H]2Nc1cc2c(cn1)[C@H](CC(=O)O)CO2 [Example 20, {(S)-6-[(R)-4-(2,6-Dimethyl-4-pyrazin-2-yl-phenyl)-7-fluoro-indan-1-ylamino]-2,3-dihydro-furo[3,2-c]pyridin-3-yl}-acetic acid] — 6.3-fold lower, 0.009 µM

Target: cytochrome P450 2C8-isoenzyme (Homo sapiens (Human), UniProt P10632)
Sequence (P10632 whole entry): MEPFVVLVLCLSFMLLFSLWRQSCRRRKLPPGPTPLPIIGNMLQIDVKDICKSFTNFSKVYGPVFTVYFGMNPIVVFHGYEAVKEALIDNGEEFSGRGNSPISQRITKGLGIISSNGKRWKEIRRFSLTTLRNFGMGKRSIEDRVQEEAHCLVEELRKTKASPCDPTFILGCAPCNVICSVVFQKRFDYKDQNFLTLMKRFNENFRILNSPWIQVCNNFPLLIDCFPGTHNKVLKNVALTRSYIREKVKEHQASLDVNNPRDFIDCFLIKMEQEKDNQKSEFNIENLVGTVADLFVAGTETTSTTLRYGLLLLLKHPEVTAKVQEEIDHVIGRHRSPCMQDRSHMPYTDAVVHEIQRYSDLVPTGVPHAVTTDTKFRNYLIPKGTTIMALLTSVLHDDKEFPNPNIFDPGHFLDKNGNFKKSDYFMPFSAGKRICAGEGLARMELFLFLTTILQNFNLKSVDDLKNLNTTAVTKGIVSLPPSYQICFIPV
Test: Inhibition of CYP-2C8 (amodiaquine deethylation, human liver microsomes)
Assay type: in vitro ADME
Conditions: amodiaquine 1 μM, 37° C.
Protocol: All assays are carried out on a robotic system in 96 well plates. The final incubation volume contains TRIS buffer (0.1 M), MgCl2 (5 mM), human liver microsomes (0.05 mg/mL), amodiaquine (1 μM) and the test compound at five different concentrations or no compound (high control) in duplicate (e.g. highest concentration 10-50 μM with subsequent serial 1:4 dilutions). Following a short preincubation period, reactions are started with the cofactor (NADPH, 1 mM) and stopped by cooling the incubation down to 8° C. and subsequently by addition of one volume of acetonitrile. An internal standard solution—the stable isotope d5-desethylamodiaquine—is added after quenching of incubations. Peak area analyte (=metabolite formed) and internal standard is determined by LC-MS/MS. The resulting peak area ratio analyte to internal standard in these incubations is compared to a control activity containing no test compound. Within each of the assay runs, the IC50 of a positive control inhibitor (Montelukast) is determined. Experimental IC50 values are calculated by least square regression according to the following equation: % control activity=(100% control activity/(1+(I/IC50)S))−B with I=inhibitor concentration; S=slope factor; B=background activity (lower plateau of the inhibition curve)
If the inhibition of the reaction is already >50% at the lowest concentration of the test compound, the IC50 is assigned “<lowest concentration tested” (usually <0.4 μM). If the inhibition of the reaction is still <50% at the highest concentration of the test compound, the IC50 is assigned “> highest concentration tested” (usually >50 μM).

For Cc1cc(OCCC(C)(C)O)cc(C)c1-c1ccc(F)c2c1CC[C@H]2Oc1ccc2c(c1)OC[C@H]2CC(=O)O [Example 16 in WO 2013/144098, reference compound], the IC50 was 5 µM.

Tested on: not listed separately
Test: Aqueous solubility
Assay type: physicochemical
Conditions: aqueous buffer, kinetic from dmso stock, buffer pH 2.2, 24 h shaking, 2.5% DMSO
Protocol: The aqueous solubility of the compounds of the invention is determined by comparing the amount dissolved in buffer to the amount in an acetonitrile/water (1/1) solution. Starting from a 10 mM DMSO stock solution aliquots are diluted with acetonitrile/water (1/1) or buffer, respectively. After 24 h of shaking, the solutions are filtrated and analyzed by LC-UV. The amount dissolved in buffer is compared to the amount in the acetonitrile solution.
Solubility is usually being measured from 0.001 to 0.125 mg/mL at a DMSO concentration of 2.5%. If more than 90% of the compound is dissolved in buffer, the value is marked with “>”.

Cc1cc(OCCC(C)(C)O)cc(C)c1-c1ccc(F)c2c1CC[C@H]2Oc1ccc2c(c1)OC[C@H]2CC(=O)O [Example 16 in WO 2013/144098, reference compound] and Cc1cc(-c2nnn(C)n2)cc(C)c1-c1ccc(F)c2c1CC[C@H]2Oc1ccc2c(c1)OC[C@H]2CC(=O)O [Example 138 in WO 2013/144098, reference compound] cannot be ordered by solubility at 24 h: < 1 µg/mL for the first, < 1 µg/mL for the second.
